Source: paper PMC10749220, “Development of a Rapid in vivo Assay to Evaluate the Efficacy of IRE1-specific Inhibitors of the Unfolded Protein Response Using Medaka Fish” (Cell Structure and Function, 2019)

Target: T1, IRE1α (Homo sapiens, UniProt O75460)
T1 construct: gene ERN1; His-tagged cytoplasmic region of IRE1α (IRE1-C), expressed in SF9 insect cells
Assay: in vitro XBP1 mRNA cleavage assay with purified IRE1-C, urea-PAGE, SYBR Gold stain
Format: biochemical

T1 sequence (O75460 465-977 limits assumed): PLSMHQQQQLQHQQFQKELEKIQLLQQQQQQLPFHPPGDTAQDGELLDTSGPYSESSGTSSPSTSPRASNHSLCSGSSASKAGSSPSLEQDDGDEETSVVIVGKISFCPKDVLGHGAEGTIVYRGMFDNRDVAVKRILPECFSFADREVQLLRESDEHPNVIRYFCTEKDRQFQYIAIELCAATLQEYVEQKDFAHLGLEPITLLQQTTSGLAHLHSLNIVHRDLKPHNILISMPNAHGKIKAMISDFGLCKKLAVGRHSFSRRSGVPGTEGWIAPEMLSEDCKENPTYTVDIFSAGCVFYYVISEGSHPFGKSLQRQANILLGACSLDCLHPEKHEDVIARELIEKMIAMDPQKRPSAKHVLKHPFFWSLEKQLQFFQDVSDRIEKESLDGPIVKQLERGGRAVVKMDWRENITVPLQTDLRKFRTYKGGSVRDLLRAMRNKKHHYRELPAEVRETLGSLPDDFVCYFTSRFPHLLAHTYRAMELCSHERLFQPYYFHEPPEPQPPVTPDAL

Compound	IC50
Oc1ccc(/C=C/c2ccc(/C=C/c3ccc(O)cc3)c(Br)c2)cc1 [K114]	30.8 µM
Cc1cc(=O)oc2c(C=O)c(O)ccc12 [4μ8C]	0.0741 µM
